Experimental data from US20220241278A1 (InCarda Therapeutics, Inc., priority 2021, published 2022).

What was measured:
[1] = Rat pharmacokinetics: lung tissue and plasma concentration after IV or IT administration; type: in vivo, Sprague Dawley rats; conditions: IV data, 60 min sample collection period
Method: Lung tissue and blood were collected for analysis.
Test System: 72 male Sprague Dawley rats (Charles River Laboratories) were used for the study, 8 weeks old, body weight range at study start was 245.8-317 g.
Experimental Design and Execution: In brief, after the animals were transferred to study, all animals were randomly assigned to treatment groups per the study design below. Animals were treated either via intravenous (IV) administration of formulation R1, or via intratracheal (IT) administration for formulation R2 of the test article.
Plasma and lung concentration vs. time data was analyzed using JMP version 15.2.0. Averages for each time point are reported for groups/time points that have a minimum of 2 animals.
The Therapeutic Advantage (Rd) in Table 8 was calculated using the following equation: […]

[2] = Appearance of about 30 mg/mL imatinib free base in 30% SBEβCD, 50 mM phosphate buffer at different pH; conditions: about 30 mg/mL in 30% SBβCD

appearance of the mixture ([2]; pH 3): clear solutions
appearance of the mixture ([2]; pH 5): clear solutions
appearance of the mixture ([2]; pH 7): white suspension
SMILES: Cc1ccc(NC(=O)c2ccc(CN3CCN(C)CC3)cc2)cc1Nc1nccc(-c2cccnc2)n1 [imatinib free base, imatinib]
distribution between lung tissue and plasma [1]: preferentially accumulates in the lung tissue
